According to publication PMC7915353, “Magnolol and Honokiol: Two Natural Compounds with Similar Chemical Structure but Different Physicochemical and Stability Properties” (Pharmaceutics, 2021):
In brackets after ≈: the same amount, converted by molar mass. Like-named read-outs stand apart in the source and are kept apart here.

Tests used:
[1] = Solubility in water, shake-flask method; type: physicochemical
Method: (§1) The aqueous solubility was evaluated using the shake-flask method. Briefly, approximately 40 mg of magnolol or honokiol were added to a volume of 10 mL of distilled water. The mixture was kept in constant agitation for a total period of 24–48 h. Samples were taken at 24 and 48 h, centrifuged for 2 min at 10× g, and the concentration of the dissolved compound was determined in the supernatant using the analytical method described above. The 48-h sample was used to confirm that a dissolution equilibrium had been reached after 24 h of agitation.

[2] = computer program; cited from earlier work
[3] = Solubility at different pH values at 37 °C, shake-flask; type: physicochemical; settings: for solubility at 24 h: 37 °C, thermodynamic from solid
Method: as §1
Solubility at different pH values (1.2, 4.5, 6.8, 7.4, 8, 9, and 10) was determined at 37 °C after 24 h of agitation. The composition of the solutions is described in USP 35 [33] and the European Pharmacopeia 7.0 [34]. Briefly, the pH 1.2 solution was prepared with diluted hydrochloric acid, the solutions with pH values from 4.5 to 7.4 were phosphate buffers, and the solutions with pH 9 and 10 were borate buffers. Additionally, two pH 8 solutions were prepared using phosphate and borate buffers.

[4] = Stability at room temperature and 37 °C, 30 days, different pH; type: physicochemical; settings: one month
Method: The stability was also evaluated at room temperature and 37 °C (pH 1.2, 4.5, 6.8, 7.4, 8, 9, and 10) after an incubation period of 30 days.

[5] = pKa, graphical estimation from solubility-pH data; type: physicochemical
From the text: Among the components of Magnolia officinalis extracts with pharmacological activity, the most relevant are magnolol and honokiol. These natural compounds have attracted great interest in recent years for their potential therapeutic applications. However, a limitation in the use of magnolol and honokiol is their poor water solubility, which can greatly restrict gastrointestinal absorption and bioavailability. The water solubilities of magnolol and honokiol at room temperature obtained in this work were 12.5 and 50.6 µg/mL, respectively. However, the solubility of both compounds can be affected by the medium pH, since their molecules contain phenolic groups that can be ionized at alkaline pH values. […] Using the obtained solubility–pH data, the pKa of magnolol can be estimated from the intersection of the straight lines corresponding to pH 1.2–6.8 and to pH 7.4–10 in Figure 3 [36]. […] This discrepancy is probably due to the reduced number of values for the second straight line (pH 9 and 10). […] The different solubility values obtained in both studies could be related to the different agitation time, which was shorter in the study of Lee et al. (2 h vs. 24 h). […] In the case of honokiol, no data about its solubility at different pH values have been found in the available literature. […] Again, the discrepancy in these values could be related to the agitation time (4 h vs. 24 h).

[6] = Octanol-water distribution coefficients; type: physicochemical
Method: Octanol–water distribution coefficients (Do/w) of magnolol and honokiol were determined by dissolving each compound in n-octanol, previously saturated with buffer (pH 1.2, 4.5, 6.8, and 7.4) or water, using glass vials. Buffers and water saturated with n-octanol were added to the corresponding vials, which were stirred for approximately 12 h at room temperature. Thereafter, the organic and the aqueous phases were separated by centrifuging the contents of the vials (2 min at 8000× g), and the concentration of each compound in both phases was determined by HPLC. The distribution coefficient was obtained as the quotient of the concentrations in the n-octanol and aqueous phases.

[7] = cited from earlier work
[8] = cited from earlier work; remark: listed apart in the source
[9] = Stability under oxidizing conditions (3% H2O2); type: physicochemical; settings: 3% hydrogen peroxide, 24 h, room temperature, 37 °C and 60 °C
Method: Additionally, stability was examined under oxidizing conditions using 3% H2O2. These samples were kept at room temperature, 37 °C, and 60 °C, for 24 h. The concentration of samples was expressed as a percentage of the initial concentration.

[10] = Forced-degradation at 60 °C, different pH values; type: physicochemical; settings: 24 h, 0.1 M HCl, 0.1 M NaOH, buffers pH 7.4-10
Method: The stability of both natural products was evaluated in forced conditions at 60 °C using different pH values. Magnolol and honokiol solutions were prepared in 0.1 M HCl, 0.1 M NaOH, and buffers (pH 7.4, 8, 9, and 10). These solutions were kept at 60 °C for 24 h and the concentration of remaining magnolol and honokiol was determined.

For C=CCc1ccc(O)c(-c2ccc(O)c(CC=C)c2)c1 [Honokiol, 3,5′-diallyl-4,2′-dihydroxybiphenyl], the solubility at 24 h [1] is listed as 50.6 ± 1.2 µg/mL (≈ 190 µM), the “log Po/w, theoretical estimation” value [2] is listed as 4.20 and the solubility at 24 h ([3]; pH 10, aqueous buffer) is listed as about 220 µg/mL (≈ 826 µM). The solubility at 24 h [3] was about 75 µg/mL (≈ 282 µM), the Degradation ([4]; pH 4.5 and 6.8, 37 °C) was “a decrease in the initial concentration was detected” and the “Concentration, percentage of the initial concentration” value ([4]; pH 7.4, 37 °C) was 29%. The “Concentration, percentage of the initial concentration” value ([4]; pH 7.4, room temperature) was 84%, the Degradation ([4]; pH values lower than 7.4, room temperature) was “no degradation” and the pKa [5] was 8.5. The logP ([6]; Log Do/w) was 4.27 ± 0.06, the logP ([6]; log Po/w) was about 4.5 and the logD ([6]; pH 1.2) was 4.48 ± 0.05. It also gave a logD ([6]; pH 4.5) of 4.5 ± 0.08, a logD ([6]; pH 6.8) of 4.48 ± 0.04 and a logD ([6]; pH 7.4) of 4.28 ± 0.05.

For C=CCc1ccc(O)c(-c2cc(CC=C)ccc2O)c1 [Magnolol, 5, 5′-diallyl-2, 2′-dihydroxybiphenyl], the solubility at 24 h ([1]; water, room temperature, preliminary solubility test, read-out: Solubility in water) is given as 12.5 ± 0.6 µg/mL (≈ 46.9 µM), the “log Po/w, theoretical estimation” value [2] is given as 3.94 and the solubility at 24 h ([3]; pH 1.2, simulated gastric fluid, pH 1.2, 37 °C, 24 h agitation, read-out: Solubility) is given as 14.8 µg/mL (≈ 55.4 µM). It also gave a solubility at 24 h ([3]; pH 7.4, aqueous buffer, pH 7.4, 37 °C, 24 h agitation, read-out: Solubility) of 30.5 µg/mL (≈ 115 µM), a solubility at 24 h ([3]; pH 8, aqueous buffer, pH 8 borate buffer, read-out: Solubility) of 138 µg/mL (≈ 518 µM) and a solubility at 24 h ([3]; pH 8, aqueous buffer, pH 8 phosphate buffer, read-out: Solubility) of 76 µg/mL (≈ 285 µM). The solubility at 24 h ([3]; pH 10, aqueous buffer, pH 10, 37 °C, read-out: Solubility) was about 2700 µg/mL (≈ 10100 µM), the solubility at 24 h ([3]; pH values lower than 7.4, 37 °C, 24 h agitation, read-out: Solubility) was about 16 µg/mL (≈ 60.1 µM) and the “Solubility at pH 7.4 in comparison to pH 1.2, fold higher” value ([3]; present study) was about 2 fold. For the same compound, the Solubility ([7]; pH 1.2, 2 h of agitation) was 3.25 µg/mL (≈ 12.2 µM), the Solubility ([7]; pH 3.5, 2 h of agitation) was 4.95 µg/mL (≈ 18.6 µM) and the Solubility ([7]; pH 7.4, 2 h of agitation) was 0.04 µg/mL (≈ 0.15 µM). For the same compound, the “Solubility at pH 7.4 in comparison to pH 1.2, fold lower” value ([7]; study by Lee et al.) was “approximately 99 fold”, the pKa ([5]; intersection of straight lines of solubility-pH profile (Figure 3), read-out: pKa, graphical estimation) was 7.2 and the logP ([6]; aqueous phase H2O, n-octanol, room temperature, mean ± SD, n = 4, read-out: Log Do/w) was 4.07 ± 0.09. It also gave a logD ([6]; aqueous phase pH 1.2, n-octanol, room temperature, mean ± SD, n = 4, read-out: Log Do/w) of 4.5 ± 0.1, a logD ([6]; aqueous phase pH 4.5, n-octanol, room temperature, mean ± SD, n = 4, read-out: Log Do/w) of 4.55 ± 0.11 and a logD ([6]; aqueous phase pH 6.8, n-octanol, room temperature, mean ± SD, n = 4, read-out: Log Do/w) of 4.48 ± 0.06. For the same compound, the logD ([6]; aqueous phase pH 7.4, n-octanol, room temperature, mean ± SD, n = 4, read-out: Log Do/w) was 4.3 ± 0.08, the logP ([6]; from log Do/w values at the acidic pHs, read-out: log Po/w) was about 4.5 and the “pKa (first value)” value [8] was 7.10. The “pKa (second value)” value [8] was 10.58, the “Stability under oxidizing conditions” value [9] was “degradation increased with the temperature” and the “Stability at different pH values” [10] was “relatively stable”.
